US8778837B2, “Use of active substance combinations for controlling animal pests” (priority 2007, dated 2014)
“And” between values parts separate entries of the source, which are not always exact repeats. Identical values can stand only once.

Key:
Assay type in all cases: in vivo
Myzus persicae = Myzus persicae test (cabbage leaf dip)
Source text: (§1) The activity to be expected for a given combination of two active substances can be calculated as follows (cf. Colby, S. R., “Calculating Synergistic and Antagonistic Responses of Herbicide Combinations”, Weeds 15, pages 20-22, 1967):
(§2) • X means the degree of destruction expressed in % of the untreated control when using active substance A at an application rate of m ppm or m g/ha, • Y means the degree of destruction expressed in % of the untreated control when using active substance B at an application rate of n ppm or n g/ha, and • E means the degree of destruction expressed in % of the untreated control when employing active substances A and B at application rates of m and n ppm or m and n g/ha, then
(§3) If the actual insecticidal degree of destruction is greater than calculated, the combination is superadditive regarding its destruction, i.e. a synergistic effect is present. In this case, the degree of destruction which is actually observed must exceed the value calculated on the basis of the above formula for the expected degree of destruction (E).
(§4) Solvent: 7 parts by weight of dimethylformamide
(§5) Emulsifier: 2 parts by weight of alkylaryl polyglycol ether
(§6) To prepare a suitable preparation of active substance, 1 part by weight of active substance is mixed with the stated amounts of solvent and emulsifier, and the concentrate is diluted to the desired concentration with emulsifier-containing water.
Cabbage leaves (Brassica oleracea) which are severely infested with the green peach aphid (Myzus persicae) are treated by being dipped into the active substance preparation of the desired concentration.
After the desired period of time, the destruction is determined in %. Here, 100% means that all the aphids have been destroyed; 0% means that no aphids have been destroyed. The destruction rates which have been determined are entered in the Colby formula (see sheet 1).

[1] = tested on: Phaedon cochleariae larvae; assay: Phaedon cochleariae larvae test (cabbage leaf dip)
Source text: as §1, §2, §3
Phaedon Cochleariae Larvae Test
as §4, §5, §6
Cabbage leaves (Brassica oleracea) are treated by being dipped into the active substance preparation of the desired concentration and are populated with mustard beetle larvae (Phaedon cochleariae) while the leaves are still moist.
After the desired period of time, the destruction is determined in %. Here, 100% means that all the beetle larvae have been destroyed; 0% means that no beetle larvae have been destroyed. The destruction rates which have been determined are entered in the Colby formula (see sheet 1).

[2] = tested on: Plutella xylostella, sensitive strain; assay: Plutella xylostella test (sensitive strain, cabbage leaf dip)
Source text: as §1, §2, §3
Plutella-Xylostella Test (Sensitive Strain)
as §4, §5, §6
Cabbage leaves (Brassica oleracea) are treated by being dipped into the active substance preparation of the desired concentration and are populated with diamondback moth caterpillars (Plutella xylostella, sensitive strain) while the leaves are still moist.
(§7) After the desired period of time, the destruction is determined in %. Here, 100% means that all the caterpillars have been destroyed; 0% means that no caterpillars have been destroyed. The destruction rates which have been determined are entered in the Colby formula (see sheet 1).

Spodoptera frugiperda = Spodoptera frugiperda test (cabbage leaf dip)
Source text: as §1, §2, §3
Spodoptera frugiperda Test
as §4, §5, §6
Cabbage leaves (Brassica oleracea) are treated by being dipped into the active substance preparation of the desired concentration and are populated with armyworm caterpillars (Spodoptera frugiperda) while the leaves are still moist.
as §7

`CN/C(=N\[N+](=O)[O-])NCc1cnc(Cl)s1` [Clothianidin, clothianidin] was tested, and the “Destruction in % after 6 d” value (Myzus persicae; 0.8 ppm) was 55%, the “Destruction in % after 6 d” value ([1]; 4 ppm) was 65% and the “Destruction in % after 6 d” value ([2]; 20 ppm) was 25%. For the same compound, the “Destruction in % after 3 d” value (Spodoptera frugiperda; 4 ppm) was 95%.
For `N#Cc1nn(-c2c(Cl)cc(C(F)(F)F)cc2Cl)c(N)c1[S+]([O-])C(F)(F)F` (stereo not shown) [Fipronil, fipronil], the “Destruction in % after 6 d” value (Myzus persicae; 100 ppm) was 65% and the “Destruction in % after 6 d” value (Spodoptera frugiperda; 0.8 ppm) was 5%.
In the case of `O=[N+]([O-])NC1=NCCN1Cc1ccc(Cl)nc1` [Imidacloprid], the “Destruction in % after 6 d” value (Myzus persicae; 0.8 ppm) is reported as 75% and the “Destruction in % after 6 d” value ([1]; 20 ppm) is reported as 75%.
With `N#Cc1ccccc1NC(=O)c1snc(Cl)c1Cl` [Isotianil, 3,4-dichloro-2′-cyano-1,2-thiazole-5-carboxanilide] the “Destruction in % after 1 d” value (Myzus persicae; 500 ppm) was 0%, the “Destruction in % after 6 d” value (Myzus persicae; 500 ppm) was 10% and 0% and the “Destruction in % after 6 d” value ([1]; 500 ppm) was 0%. For the same compound, the “Destruction in % after 6 d” value ([2]; 500 ppm) was 0% and the “Destruction in % after 3 d” value (Spodoptera frugiperda; 500 ppm) was 10%.
With `N#C/N=C1\SCCN1Cc1ccc(Cl)nc1` [Thiacloprid] the “Destruction in % after 6 d” value (Myzus persicae; 0.8 ppm) was 45%, the “Destruction in % after 6 d” value ([1]; 4 ppm) was 0% and the “Destruction in % after 6 d” value ([2]; 20 ppm) was 45%.
`CN1COCN(Cc2cnc(Cl)s2)/C1=N\[N+](=O)[O-]` [Thiamethoxam] was tested, and the “Destruction in % after 1 d” value (Myzus persicae; 0.8 ppm) was 75%, the “Destruction in % after 6 d” value ([1]; 20 ppm) was 80% and the “Destruction in % after 6 d” value (Spodoptera frugiperda; 20 ppm) was 70%.
